In US12268687B2, “Compounds and uses thereof” (JANSSEN PHARMACEUTICA NV, priority 2020, dated 2025):
Where two headings read alike, the source gives them in different places.

Tests used:
[1] = biological target: SCD1 (Homo sapiens (Human), UniProt O00767); experiment: Growth inhibition of yeast strain expressing human SCD1 as the sole desaturase; assay type: cell-based
[2] = biological target: SCD5 (Homo sapiens (Human), UniProt Q86SK9); experiment: Growth inhibition of yeast strain expressing human SCD5 as the sole desaturase; assay type: cell-based
[3] = ole1Δ yeast with human SCD1 plasmid, OD600 growth read at 40 h, top concentration 33.3 μM per method
[4] = ole1Δ yeast with human SCD5 plasmid, OD600 growth read at 40 h, top concentration 33.3 μM per method

Chain of SCD1 (O00767 whole entry): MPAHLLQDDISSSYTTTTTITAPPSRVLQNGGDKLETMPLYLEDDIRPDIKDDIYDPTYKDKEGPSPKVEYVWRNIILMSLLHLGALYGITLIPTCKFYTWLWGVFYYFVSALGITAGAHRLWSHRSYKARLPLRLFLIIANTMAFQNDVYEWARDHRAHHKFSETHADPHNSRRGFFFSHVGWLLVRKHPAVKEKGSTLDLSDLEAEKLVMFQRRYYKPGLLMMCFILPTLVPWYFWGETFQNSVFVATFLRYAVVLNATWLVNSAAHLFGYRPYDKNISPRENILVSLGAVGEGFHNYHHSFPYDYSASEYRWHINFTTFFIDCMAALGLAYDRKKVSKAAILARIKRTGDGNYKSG
Chain of SCD5 (Q86SK9 whole entry): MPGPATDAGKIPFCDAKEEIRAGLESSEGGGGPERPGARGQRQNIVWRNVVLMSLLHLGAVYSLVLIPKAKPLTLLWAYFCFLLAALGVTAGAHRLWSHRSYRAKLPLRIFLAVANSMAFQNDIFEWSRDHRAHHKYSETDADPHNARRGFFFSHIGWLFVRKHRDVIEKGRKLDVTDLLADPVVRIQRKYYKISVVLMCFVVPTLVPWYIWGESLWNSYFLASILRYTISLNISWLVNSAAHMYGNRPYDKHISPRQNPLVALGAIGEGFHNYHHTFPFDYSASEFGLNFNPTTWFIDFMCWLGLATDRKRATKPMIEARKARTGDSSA

Compound	IC50 [1, 3]	IC50 [2, 4]	IC50 [1]	IC50 [2]
Cn1cc(NC(=O)N2CCC(Cc3cc(F)cc(F)c3)CC2)ccc1=O [Compound 9]	14400 nM	4220 nM	–	–
Cn1nc(NC(=O)N2CCC(Oc3cccc(Cl)c3F)CC2)ccc1=O [Compound 77, 4-(3-chloro-2-fluorophenoxy)-N-(1-methyl-6-oxo-1,6-dihydropyridazin-3-yl)piperidine-1-carboxamide]	910 nM	740 nM	–	–
Cn1nc(NC(=O)N2CCC(Cc3cc(F)cc(F)c3)CC2)ccc1=O [Compound 51, 4-(3,5-difluorobenzyl)-N-(1-methyl-6-oxo-1,6-dihydropyridazin-3-yl)piperidine-1-carboxamide]	–	–	680 nM	60 nM
Cn1nc(NC(=O)C2CCN(Cc3cccc(Cl)c3)CC2)ccc1=O [Compound 136, 1-(3-chlorobenzyl)-N-(1-methyl-6-oxo-1,6-dihydropyridazin-3-yl)piperidine-4-carboxamide]	> 45000 nM	> 45000 nM	–	–

More lines, main results first:

IC50 [1, 3]	IC50 [2, 4]	Compound	IC50 [1]	IC50 [2]
170 nM	10 nM	Cn1nc(NC(=O)N2CCC(Oc3cccc(F)c3Cl)CC2)ccc1=O [Compound 78, 4-(2-Chloro-3-fluorophenoxy)-N-(1-methyl-6-oxo-1,6-dihydropyridazin-3-yl)piperidine-1-carboxamide]	–	–
450 nM	10 nM	6-(3-(4-(3,5-difluorobenzyl)piperidin-1-yl)-1,2,4-oxadiazol-5-yl)-2-methylpyridazin-3(2H)-one [Compound 115]	–	–
